In ChEMBL document CHEMBL4152259, “Benzoxazinone-containing 3,5-dimethylisoxazole derivatives as BET bromodomain inhibitors for treatment of castration-resistant prostate cancer” (Eur J Med Chem, 2018) one finds IC50 and ΔTm data, which are given here for 30 compounds.

The target of test [1] is T1, Bromodomain-containing protein 4 (Homo sapiens, UniProt O60885). The experiment in a line: Inhibition of His6-tagged human BRD4 bromodomain-1 (N44 to E168 residues) expressed in Escherichia coli BL21(DE3) using biotinylated-H4KAc4 as substrate by AlphaScreen assay. For orientation: In Alpha technology, singlet oxygen from a donor bead excites a nearby acceptor bead.

Test [2] addresses T1, Bromodomain-containing protein 4.
Description: Binding affinity to His6-tagged human BRD4 bromodomain-1 (N44 to E168 residues) expressed in Escherichia coli BL21(DE3) assessed as change in melting temperature at 200 uM by SYPRO orange dye based fluorescence assay
Test [3] has as its system VCaP. The experiment in a line: Antiproliferative activity against human VCaP cells treated at 12 hrs post cell seeding measured at 72 to 144 hrs post cell seeding by Cell-Titer Glo assay. Type of test: functional, cell-based.
Test [4] deals with LNCaP C4-2B. The test can be described thus: Antiproliferative activity against human C4-2B cells treated at 12 hrs post cell seeding measured at 72 to 144 hrs post cell seeding by Cell-Titer Glo assay. It is filed as functional, cell-based.
For test [5], the system named is LNCaP. The test can be described thus: Antiproliferative activity against human LNCAP cells treated at 12 hrs post cell seeding measured at 72 to 144 hrs post cell seeding by Cell-Titer Glo assay. It is filed as functional, cell-based.
Test [6] relates to CWR22R. The experiment in a line: Antiproliferative activity against human 22Rv1 cells treated at 12 hrs post cell seeding measured at 72 to 144 hrs post cell seeding by Cell-Titer Glo assay. Type of test: functional, cell-based.
Test [7] concerns LNCaP. The experiment in a line: Antiproliferative activity against human LNCAP cells. It is filed as functional, cell-based.

As usually defined, the IC50 is the concentration at which inhibition is half-maximal. A higher IC50 goes with weaker potency in that assay. By ΔTm is commonly meant the shift of the melting midpoint relative to a reference.

On to `Cc1noc(C)c1-c1ccc2c(c1)OC(c1ccccc1Cl)C(=O)N2` (stereo not given), for which the IC50 in test [1] is 490 nM. Also, in test [2], the ΔTm is 5.1 °C.

Turning to `Cc1noc(C)c1-c1ccc2c(c1)OC(CC1CCCCC1)C(=O)N2` (stereo not given), the IC50 in test [1] was determined as 1170 nM. In test [2], the ΔTm amounted to 6.9 °C.

The compound `Cc1noc(C)c1-c1ccc2c(c1)OC(c1cc(Cl)cc(Cl)c1)C(=O)N2` (stereo not given) displayed an IC50 in test [1] of 1330 nM. Besides, in test [2], the ΔTm was 6.3 °C.

In the case of `Cc1noc(C)c1-c1ccc2c(c1)OC(Cc1ccccc1)C(=O)N2` (stereo not given), the IC50 in test [1] is over 20000 nM. The ΔTm in test [2] stood at 3 °C.

In test [1], `CSCCC1Oc2cc(-c3c(C)noc3C)ccc2NC1=O` (stereo not given) yielded an IC50 of 530 nM. Further, the ΔTm in test [2] came to 6.9 °C.

In turn, `Cc1noc(C)c1-c1ccc2c(c1)OC(CC1CCC1)C(=O)N2` (stereo not given) came in with an IC50 in test [1] of 200 nM. In addition, the ΔTm in test [2] was found to be 8.1 °C.

`Cc1noc(C)c1-c1ccc2c(c1)OC(C(C)(C)C)C(=O)N2` (stereo not given): inhibition in test [1] was half-maximal at 270 nM (IC50). Also, the ΔTm in test [2] was found to be 7.9 °C.

For the compound `CCCCC1Oc2cc(-c3c(C)noc3C)ccc2NC1=O` (stereo not given), the IC50 in test [3] worked out at 1140 nM; in test [1] it was 200 nM; in test [4], 590 nM; in test [5], 820 nM; in test [6], 4520 nM. The ΔTm in test [2] came to 7.8 °C.

In test [1], `Cc1noc(C)c1-c1ccc2c(c1)OC(c1cccc(Cl)c1)C(=O)N2` (stereo not given) had an IC50 of 510 nM. The ΔTm in test [2] was 4.8 °C.

As to `CCCC1Oc2cc(-c3c(C)noc3C)ccc2NC1=O` (stereo not given), in test [1], the IC50 came out at 290 nM. For the same compound, the ΔTm in test [2] worked out at 8.1 °C.

On to `Cc1noc(C)c1-c1ccc2c(c1)O[C@H](CC1CC1)C(=O)N2CCN(C)C`, for which the IC50 in test [1] was 860 nM. Further, in test [2], the ΔTm worked out at 8.4 °C.

Turning to `Cc1noc(C)c1-c1ccc2c(c1)O[C@H](Cc1ccccc1)C(=O)N2`, the IC50 in test [1] worked out at 6070 nM. In addition, the ΔTm in test [2] was determined as 3.2 °C.

`CCNC(=O)C[C@@H]1N=C(c2ccc(Cl)cc2)c2cc(OC)ccc2-n2c(C)nnc21` [MOLIBRESIB] registered an IC50 in test [7] of 356 nM.

In the case of `Cc1sc2c(c1C)C(c1ccc(Cl)cc1)=N[C@@H](CC(=O)Nc1ccc(O)cc1)c1nnc(C)n1-2` [BIRABRESIB], the IC50 in test [7] is 111 nM.

`Cc1noc(C)c1-c1ccc2c(c1)OC(C(C)C)C(=O)N2` (stereo not given) came in with an IC50 in test [1] of 1170 nM. Further, the ΔTm in test [2] was 6.9 °C.

On to `Cc1noc(C)c1-c1ccc2c(c1)OC(c1ccccc1C(F)(F)F)C(=O)N2` (stereo not given), for which half-maximal inhibition in test [1] (IC50) required 1140 nM. In addition, the ΔTm in test [2] was determined as 5.4 °C.

On to `Cc1noc(C)c1-c1ccc2c(c1)OC(c1cccc(C(F)(F)F)c1)C(=O)N2` (stereo not given), for which, in test [1], the IC50 came to 2270 nM. In addition, the ΔTm in test [2] is 3.3 °C.

For `Cc1noc(C)c1-c1ccc2c(c1)OC(Cc1ccc(Cl)cc1)C(=O)N2` (stereo not given), the IC50 in test [1] is over 20000 nM. In addition, the ΔTm in test [2] was found to be 2.1 °C.

With `Cc1noc(C)c1-c1ccc2c(c1)O[C@H](CC1CC1)C(=O)N2C`, in test [1], the IC50 was found to be 520 nM. Also, the ΔTm in test [2] was found to be 7.7 °C.

Compound `Cc1noc(C)c1-c1ccc2c(c1)OC(CC1CCCC1)C(=O)N2` (stereo not given) returned an IC50 in test [1] of 290 nM. For the same compound, in test [2], the ΔTm was determined as 7.8 °C.

For the compound `Cc1noc(C)c1-c1ccc2c(c1)O[C@H](CC1CC1)C(=O)N2CC(=O)O`, in test [1], the IC50 was determined as 2120 nM. Further, the ΔTm in test [2] is 6.9 °C.

In test [1], `Cc1noc(C)c1-c1ccc2c(c1)O[C@H](CC1CC1)C(=O)N2CC(=O)N(C)C` registered an IC50 of 3640 nM. Besides, the ΔTm in test [2] is 6.9 °C.

As to `CNC(=O)c1ccc(N2C(=S)N(c3ccc(C#N)c(C(F)(F)F)c3)C(=O)C2(C)C)cc1F` [ENZALUTAMIDE], the values for the IC50 in test [3] and in test [4] were over 30000 nM and 20800 nM, respectively.

Consider `Cc1noc(C)c1-c1ccc2c(c1)OC(CC(C)C)C(=O)N2` (stereo not given), for which the IC50 in test [3] was determined as 380 nM; in test [1], 180 nM; in test [4] it was 540 nM; in test [5], 570 nM; in test [6], 6500 nM. In test [2], the ΔTm was 9.4 °C.

On to `Cc1noc(C)c1-c1ccc2c(c1)OC(CC1CC1)C(=O)N2` (stereo not given), for which the IC50 in test [3] was determined as 410 nM; in test [1], 400 nM; in test [4], 590 nM; in test [5], 1030 nM; in test [6] it was 1940 nM. Further, the ΔTm in test [2] was 8.7 °C.

Take `COC(=O)CN1C(=O)[C@@H](CC2CC2)Oc2cc(-c3c(C)noc3C)ccc21`: the IC50 in test [1] stood at 360 nM. Besides, the ΔTm in test [2] worked out at 8.9 °C.

In test [1], `Cc1noc(C)c1-c1ccc2c(c1)OC(c1cccc(F)c1)C(=O)N2` (stereo not given) had an IC50 of 620 nM. Besides, the ΔTm in test [2] was determined as 7.5 °C.

In turn, `Cc1noc(C)c1-c1ccc2c(c1)OC(c1ccc(Cl)c(Cl)c1)C(=O)N2` (stereo not given) registered an IC50 in test [1] of 4250 nM. The ΔTm in test [2] stood at 5.7 °C.

In test [1], `Cc1noc(C)c1-c1ccc2c(c1)O[C@@H](CC1CC1)C(=O)N2` displayed an IC50 of 3540 nM. Also, the ΔTm in test [2] was determined as 3.9 °C.

In the case of `Cc1noc(C)c1-c1ccc2c(c1)OC(c1ccc(Cl)cc1)C(=O)N2` (stereo not given), the IC50 in test [1] was 880 nM. Besides, in test [2], the ΔTm was determined as 5.4 °C.
